Where two headings read alike, the source gives them in different places.
Columns and labels:
Deroceras reticulatum [1] = assay: Oral toxicity bait test (pellets in petri-dish), percentage control; format: in vivo; details: 72 h; for mortality at 4 % strength: read-out: % control; for mortality at 2 % strength: 2 % active material in bait
Protocol: The molluscicidal activity of compounds used in the method of the invention was tested using, as a test mollusc, specimens of the adult grey field slug Deroceras reticulatum.
The oral toxicity of the compounds was assessed by presenting slugs with individually prepared experimental baits containing either 4% or 2% active material. These were compared with commercial baits containing 4% methiocarb (Draza) […] 6% metaldehyde (Slugit).
2 test pellets were placed onto a 5 cm filter-paper in the centre of a 9 cm plastic petri-dish. Two adults specimens of the slug Deroceras reticulatum were introduced into each dish and the pellets moistened with a few drops of water to make them attractive to eat. A minimum of the two replicates was used for each compound. Blank baits moistened with an equivalent volume of water were used as controls.
The dishes were then stored in a large glass tank maintained at 12 to 16°C and >95% relative humidity. Assessments of the number of slugs affected were made at intervals up to 3 days after treatment. Slugs were considered to be affected or controlled by the bait if they were incapable of normal body movements and could not right themselves within 2 minutes.
The molluscicidal activity of two compounds specified in European Patent Specification No. 437 784 A1, was tested against slugs, Deroceras reticulatum, using the test method given in Example 1 and bait containing 4% active material in each case. • Comparative A is the compound of Example 2 of EP-A-437 784 • Comparative B is the compound of Example 3 of EP-A-437 784.

[2] = statement of DE-A-4111389; cited from earlier work
D. reticulatum = assay: Contact test: glass residue test; format: in vivo; details: Deroceras reticulatum, read-out: % affected D. reticulatum
Protocol: The contact action of Compounds Nos. 1, 3 and 4 was assessed in this Example, using a glass residue test.
The residual toxicity of compounds on glass was investigated by pipetting aliquots of an acetone/Triton X-100 test solution over the base of a 7 cm diameter glass petri-dish to achieve a concentration of 600 ppm. Four adult slugs (D. reticulatum) were introduced into each dish and slug mortality recorded over a 5 day period. Moistened sugar bran mix was provided as food 24 hours after exposure.

slugs = assay: Systemic activity: lettuce root dip, cut leaves fed to slugs; format: in vivo; details: root dip 400 ppm
Protocol: The action via systemic application of the Compound Nos. 1, 3 and 4 was assessed in this Example.
Test solutions of the compounds were prepared by dissolving technical samples in 1 ml of acetone and making up to 50 ml with tap water. The roots of young 6 cm high lettuce plants were then washed clean with water and immersed in the test solution for a minimum of two days. For each bioassay individual leaves were cut from a lettuce plant and placed on a filter paper in a 9cm diameter petri-dish. 1 ml of water was pipetted onto each filter paper in order to keep the leaves reasonably moist during the assay. Two medium-sized slugs were introduced into each dish and the amount of leaf eaten and % control of slugs recorded over a two day period. The amount of compound applied as root dips was in the range of from 400 to 1000 ppm over a number of tests.

Arion hortensis = assay: Bait test against a range of slug species; format: in vivo
Protocol: (§1) The action of Compound No. 1 was assessed against a wide range of slug species, and against snails of the genus Cepaea, with bait containing 2%, 4% and 6% active ingredient. The action of a 4% Draza (trade name for a sluggicide sold by Bayer AG and containing the carbamate molluscicide methiocarb) bait was also assessed.
(§2) The slug species utilised in the test were Milax budapestensis , a large slug which is a major pest of potatoes Deroceras reticulatum , grey field slug - a major field crop pest Arion hortensis , garden slug.

Deroceras reticulatum [3] = assay: Bait test against a range of slug species; format: in vivo
Protocol: as §1, §2

Milax budapestensis = assay: Bait test against a range of slug species; format: in vivo
Protocol: as §1, §2

[4] = system: snails of the genus Cepaea; assay: Bait test against snails; format: in vivo; details: bait containing 2%, 4% and 6% active ingredient
Protocol: as §1

[5] = assessments up to 3 days after treatment
[6] = 4 % active material in bait, assessments up to 3 days after treatment
[7] = bait containing 2%, 4% and 6% active ingredient

CNC(=O)Oc1cc(C)c(SC)c(C)c1 [methiocarb, reference compound]
mortality at 4 % strength (Deroceras reticulatum [1]): 100%

O=[N+]([O-])C=C1NCCN1Cc1cc(Br)no1 [compound 5]
mortality at 2 % strength (Deroceras reticulatum [1]; [5]): 50%

O=[N+]([O-])C(CSc1ccc(Cl)cc1)=C1NCCN1Cc1cc(Br)no1 [compound 10]
mortality at 2 % strength (Deroceras reticulatum [1]; [5]): 25%

O=[N+]([O-])C=C1NCCN1Cc1ccc(C(F)(F)F)cc1 [compound 22]
mortality at 2 % strength (Deroceras reticulatum [1]; [5]): 50%

Cc1ccc(CN2CCNC2=C[N+](=O)[O-])cc1[N+](=O)[O-] [compound 21]
mortality at 2 % strength (Deroceras reticulatum [1]; [5]): 25%

O=[N+]([O-])N=C1NCCN1Cc1ccc(Cl)nc1 [Compound No. 13, Imidacloprid]
molluscicidal effectiveness [2]: only a relatively poorly developed molluscicidal effectiveness | mortality at 4 % strength (Deroceras reticulatum [1]; [6]): 30%

Cc1cc(CN2CCNC2=N[N+](=O)[O-])on1 [compound 11]
mortality at 2 % strength (Deroceras reticulatum [1]; [5]): 100%

Cc1cc(CN2CCNC2=C[N+](=O)[O-])on1 [compound 3]
mortality at 600 ppm (D. reticulatum; 24 hours): 75% | mortality at 600 ppm (D. reticulatum; 48 hours): 100% | mortality at 600 ppm (D. reticulatum; 120 hours): 100% | systemic activity (slugs): Activity was observed | mortality at 2 % strength (Deroceras reticulatum [1]; [5]): 100%

O=[N+]([O-])C=C1NCCN1Cc1ccc(Cl)nc1 [compound 12]
mortality at 4 % strength (Deroceras reticulatum [1]; [6]): 20%

O=[N+]([O-])C=C1SCCN1Cc1cnc(Cl)c(Cl)c1 [compound 16]
mortality at 2 % strength (Deroceras reticulatum [1]; [5]): 50%

O=[N+]([O-])C=C1NCCN1Cc1ccc(F)c(F)c1F [compound 18]
mortality at 2 % strength (Deroceras reticulatum [1]; [5]): 25%

C=C(C)CN1CCCNC1=C[N+](=O)[O-] [compound 23]
mortality at 2 % strength (Deroceras reticulatum [1]; [5]): 25%

O=[N+]([O-])C(=C1NCCN1Cc1cc(Cl)no1)[N+](=O)[O-] [compound 9]
mortality at 2 % strength (Deroceras reticulatum [1]; [5]): 50%

O=[N+]([O-])N=C1NCCN1Cc1cc(Br)no1 [compound 6]
mortality at 2 % strength (Deroceras reticulatum [1]; [5]): 25%

O=[N+]([O-])C=C1SCCN1Cc1cc(Cl)no1 [compound 8]
mortality at 2 % strength (Deroceras reticulatum [1]; [5]): 25%

O=[N+]([O-])C=C1NCCN1Cc1cccc2ccccc12 [compound 20]
mortality at 2 % strength (Deroceras reticulatum [1]; [5]): 25%

O=[N+]([O-])C=C1NCCN1Cc1cc(Cl)no1 [Compound No. 1]
mortality at 600 ppm (D. reticulatum; 24 hours): 100% | mortality at 600 ppm (D. reticulatum; 48 hours): 75% | mortality at 600 ppm (D. reticulatum; 120 hours): 100% | effectiveness compared with 4% Draza bait (Arion hortensis; 4% bait): more effective than the 4% Draza bait | control of slugs (Arion hortensis; [7]): controlled | effectiveness compared with 4% Draza bait (Deroceras reticulatum [3]; 4% bait): more effective than the 4% Draza bait | control of slugs (Deroceras reticulatum [3]; [7]): controlled | effectiveness compared with 4% Draza bait (Milax budapestensis; 4% bait): more effective than the 4% Draza bait | control of slugs (Milax budapestensis; [7]): controlled | systemic activity (slugs): Activity was observed | mortality at 4 % strength (Deroceras reticulatum [1]; [6]): 100% | control of snails [4]: controlled

Cc1cc(CN2CCCNC2=C[N+](=O)[O-])on1 [compound 24]
mortality at 2 % strength (Deroceras reticulatum [1]; [5]): 25%

O=[N+]([O-])C=C1NCCN1Cc1cnc(Cl)c(Cl)c1 [compound 14]
mortality at 4 % strength (Deroceras reticulatum [1]; [6]): 20%

Cc1cc(CN2CCSC2=C[N+](=O)[O-])on1 [compound 7]
mortality at 2 % strength (Deroceras reticulatum [1]; [5]): 100%

O=[N+]([O-])C(CSCc1ccccc1)=C1NCCN1c1ccc(Cl)nc1 [compound 17]
mortality at 2 % strength (Deroceras reticulatum [1]; [5]): 25%

O=[N+]([O-])C=C1NCCN1Cc1cc(C(F)(F)F)no1 [compound 4]
mortality at 600 ppm (D. reticulatum; 24 hours): 25% | mortality at 600 ppm (D. reticulatum; 48 hours): 0% | mortality at 600 ppm (D. reticulatum; 120 hours): 25% | mortality at 2 % strength (Deroceras reticulatum [1]; [5]): 100%

O=[N+]([O-])N=C1NCCN1Cc1cc(Cl)no1 [compound 2]
mortality at 2 % strength (Deroceras reticulatum [1]; [5]): 50%

O=[N+]([O-])N=C1NCCN1Cc1cnc(Cl)c(Cl)c1 [compound 15]
mortality at 2 % strength (Deroceras reticulatum [1]; [5]): 25%
